Experiment [1] has as its system HOS cells (human osteoblast cells). As to the kind of experiment: Cellular radioprotection, colony formation assay (cell survival after gamma radiation). In kind it is cell-based. The conditions noted are these: for survival: HOS cells under radioprotective treatment conditions (FIG. 2); for DRF: in vitro comparison with amifostine, HOS cells, gamma radiation (FIG. 2). Here is the method:
Radiation protection by P529 is evaluated using a human osteoblast cell model (HOS cells). The effect of P529 (10 μM, 4 hr) on cell survival after radiation is assessed; cell survival was measured using the colony formation assay.

In a further experiment the test system is HOS cells. Kind of experiment: Chromosomal radiation protection, metaphase aberration scoring. In kind it is cell-based, human. The conditions noted are these: for Breaks / Fragments / Percent Aberrant Cells / Rings + Dicentrics: Radiation + P529 (25 uM, 12 hrs pre-radiation). On the procedure:
Non-tumorigenic immortalized human osteosarcoma cells (HOS) are exposed to increasing doses of gamma radiation (O-4 Gy; 6.6 Gy/min). Control cells receive no drug; Drug-treated cells receive P529 (25 uM, 12 hrs pre-radiation). Metaphase plates are prepared from control and drug-treated cells (Gupta, Br J Radiol, 59:625 1986). A total of 100 metaphases are examined per group/dose. Aberrant metaphases, chromatid and chromosome breaks, fragments, rings, and dicentrics are scored under a light microscope. Aberrations are identified using criteria given by Savage (J Med Genetics 12:103-122, 1976).

Experiment [2] relates to C57 mice exposed to gamma radiation. As to the kind of experiment: Mitigation of radiation effect in vivo (TBI 9 Gy). The conditions noted are these: female C57 mice, 9 Gy gamma radiation; ip 100 μl on day 1 and days 3-26. The text has this:
Sixteen female C57 mice are exposed to gamma radiation (9 Gy). Group 1 received radiation only (no drug). Group 2 received radiation and P529 as noted in the following schedule: […]

Each structure is given as a SMILES string.

In experiment [1], `NCCCNCCSP(=O)(O)O` [amifostine, reference compound] had a survival of 0.35 and a DRF of 1.45.

Take `COc1ccc(COc2cc3oc(=O)c4cc(C(C)O)ccc4c3cc2OC)cc1` (stereo not shown) [P529, 8-(1-Hydroxy-ethyl)-2-methoxy-3-(4-methoxy-benzyloxy)-benzo[c]chromen-6-one]: the “dose-reduction factor (DRF)” value in experiment [1] (HOS cells pretreated 10 μM for 4 hr prior to gamma radiation, at the 0.005 survival fraction (FIG. 1)) was determined as 1.38. In experiment [1], this compound displayed a survival of 0.99. In experiment [1], this compound came in with a DRF of 1.34. For the same compound, in experiment [1] (pretreated 10 μM for 4 hr prior to radiation exposure), the “radiation resistance of cells” value is “significant radiation resistance”. Moreover, the Breaks result with HOS cells (dose 0 Gy) was “.0016 ± .0002”; with HOS cells (dose 1 Gy) it was “.0013 ± .0002”; in the experiment on HOS cells (dose 2 Gy) it was “.0018 ± .0002”; with HOS cells (dose 3 Gy), “.0022 ± .0003”; in the experiment with HOS cells (dose 4 Gy) it was “.0039 ± .0004”. Moreover, the Fragments entry in the experiment with HOS cells (dose 0 Gy) is on record as “.007 ± .0009”; in the experiment on HOS cells (dose 1 Gy) it was “.05 ± .006”; in the experiment on HOS cells (dose 2 Gy), “.118 ± .022”; with HOS cells (dose 3 Gy), “.23 ± .028”; with HOS cells (dose 4 Gy), “.30 ± .031”. For the same compound, the “Percent Aberrant Cells” value is “.66 ± .07%” in the experiment with HOS cells (dose 0 Gy); 3.1 ± .033% in the experiment on HOS cells (dose 1 Gy); 5.0 ± .052% with HOS cells (dose 2 Gy); 11.4 ± 1.22% in the experiment with HOS cells (dose 3 Gy); 19.5 ± 1.29% in the experiment with HOS cells (dose 4 Gy). The “Rings + Dicentrics” value is reported as 0.00 ± 0.0 with HOS cells (dose 0 Gy); 0.00 ± 0.0 in the experiment on HOS cells (dose 1 Gy); “.003 ± .0004” in the experiment with HOS cells (dose 2 Gy); “.005 ± .0004” in the experiment on HOS cells (dose 3 Gy); “.017 ± .002” with HOS cells (dose 4 Gy). For the same compound, in the experiment on HOS cells (human HOS cells, Table 2), the “chromosomal protection from radiation exposure” value is reported as “can provide chromosomal protection from radiation exposure”. Besides, the “mitigation of radiation effect and damage” value in experiment [2] is “can mitigate the radiation effect”.

The values are drawn from US9381187B2, “Radiation countermeasure agents” (PALOMA PHARMACEUTICALS, INC., priority 2011, dated 2016).
